Assay: Drug release test according to blocking ratio of chamber unit (Franz diffusion cell)
Format: physicochemical
Protocol: In order to evaluate drug release characteristics according to the size of the blocking unit (blocking film) that is bonded to the chamber unit, which is for storing the drug, and is for blocking the release of the drug stored in the chamber unit, contact lenses for drug delivery of FIG. 4 having various blocking ratios were prepared.
Specifically, contact lenses for drug delivery bonded to blocking units (blocking films) capable of blocking a […], with respect to a total area of the chamber unit were prepared, a drug was injected into each chamber unit, and drug release characteristics were evaluated.
The drug release test was conducted by putting the contact lens for drug delivery into a Franz diffusion cell and evaluating, and the test was conducted while maintaining the temperature at 37.0±0.5° C. and by using a phosphate buffer solution of pH 7.4. A solution in which lifitegrast was dissolved in distilled water was injected into the chamber unit of contact lenses for drug delivery, and the contact lenses were mounted on a donor. In addition, the experiment was conducted in a manner that 5 mL of the solution in which the drug was released was collected with a syringe from each container, and filled with the same amount of buffer solution at a predetermined sampling time (0.5, 1, 1.5, 2, 3, 4, 6 hours), after 5 mL of the solution containing the collected drug was filtered through a syringe filter, 2 mL each was put into a vial and used as a test solution, and the obtained test solution was analyzed by using high-performance liquid chromatography (HPLC).

Cumulative drug release (%) (blocking ratio 0%, 0 h): 0% | Cumulative drug release (%) (blocking ratio 0%, 0.5 h): 95% | Cumulative drug release (%) (blocking ratio 0%, 1 h): 100% | Cumulative drug release (%) (blocking ratio 0%, 1.5 h): 100% | Cumulative drug release (%) (blocking ratio 0%, 2 h): 100% | Cumulative drug release (%) (blocking ratio 0%, 3 h): 100% | Cumulative drug release (%) (blocking ratio 0%, 4 h): 100% | Cumulative drug release (%) (blocking ratio 0%, 5 h): 100% | Cumulative drug release (%) (blocking ratio 0%, 6 h): 100% | Cumulative drug release (%) (blocking ratio 2.5%, 0 h): 0% | Cumulative drug release (%) (blocking ratio 2.5%, 0.5 h): 90% | Cumulative drug release (%) (blocking ratio 2.5%, 1 h): 95% | Cumulative drug release (%) (blocking ratio 2.5%, 1.5 h): 100% | Cumulative drug release (%) (blocking ratio 2.5%, 2 h): 100% | Cumulative drug release (%) (blocking ratio 2.5%, 3 h): 100% | Cumulative drug release (%) (blocking ratio 2.5%, 4 h): 100% | Cumulative drug release (%) (blocking ratio 2.5%, 5 h): 100% | Cumulative drug release (%) (blocking ratio 2.5%, 6 h): 100% | Cumulative drug release (%) (blocking ratio 50%, 0 h): 0% | Cumulative drug release (%) (blocking ratio 50%, 0.5 h): 86% | Cumulative drug release (%) (blocking ratio 50%, 1 h): 90% | Cumulative drug release (%) (blocking ratio 50%, 1.5 h): 93% | Cumulative drug release (%) (blocking ratio 50%, 2 h): 96% | Cumulative drug release (%) (blocking ratio 50%, 3 h): 100% | Cumulative drug release (%) (blocking ratio 50%, 4 h): 100% | Cumulative drug release (%) (blocking ratio 50%, 5 h): 100% | Cumulative drug release (%) (blocking ratio 50%, 6 h): 100% | Cumulative drug release (%) (blocking ratio 75%, 0 h): 0% | Cumulative drug release (%) (blocking ratio 75%, 0.5 h): 61% | Cumulative drug release (%) (blocking ratio 75%, 1 h): 77% | Cumulative drug release (%) (blocking ratio 75%, 1.5 h): 83% | Cumulative drug release (%) (blocking ratio 75%, 2 h): 87% | Cumulative drug release (%) (blocking ratio 75%, 3 h): 91% | Cumulative drug release (%) (blocking ratio 75%, 4 h): 94% | Cumulative drug release (%) (blocking ratio 75%, 5 h): 97% | Cumulative drug release (%) (blocking ratio 75%, 6 h): 100% | Cumulative drug release (%) (blocking ratio 85%, 0 h): 0% | Cumulative drug release (%) (blocking ratio 85%, 0.5 h): 49% | Cumulative drug release (%) (blocking ratio 85%, 1 h): 59% | Cumulative drug release (%) (blocking ratio 85%, 1.5 h): 65% | Cumulative drug release (%) (blocking ratio 85%, 2 h): 73% | Cumulative drug release (%) (blocking ratio 85%, 3 h): 79% | Cumulative drug release (%) (blocking ratio 85%, 4 h): 87% | Cumulative drug release (%) (blocking ratio 85%, 5 h): 93% | Cumulative drug release (%) (blocking ratio 85%, 6 h): 98% | Cumulative drug release (%) (blocking ratio 95%, 0 h): 0% | Cumulative drug release (%) (blocking ratio 95%, 0.5 h): 33% | Cumulative drug release (%) (blocking ratio 95%, 1 h): 41% | Cumulative drug release (%) (blocking ratio 95%, 1.5 h): 51% | Cumulative drug release (%) (blocking ratio 95%, 2 h): 59% | Cumulative drug release (%) (blocking ratio 95%, 3 h): 71% | Cumulative drug release (%) (blocking ratio 95%, 4 h): 83% | Cumulative drug release (%) (blocking ratio 95%, 5 h): 90% | Cumulative drug release (%) (blocking ratio 95%, 6 h): 94% | Cumulative drug release (%) (blocking ratio 100%, 0 h): 0% | Cumulative drug release (%) (blocking ratio 100%, 0.5 h): 0% | Cumulative drug release (%) (blocking ratio 100%, 1 h): 0% | Cumulative drug release (%) (blocking ratio 100%, 1.5 h): 0% | Cumulative drug release (%) (blocking ratio 100%, 2 h): 0% | Cumulative drug release (%) (blocking ratio 100%, 3 h): 0% | Cumulative drug release (%) (blocking ratio 100%, 4 h): 0% | Cumulative drug release (%) (blocking ratio 100%, 5 h): 0% | Cumulative drug release (%) (blocking ratio 100%, 6 h): 0%
Compound: CS(=O)(=O)c1cccc(C[C@H](NC(=O)c2c(Cl)cc3c(c2Cl)CCN(C(=O)c2ccc4ccoc4c2)C3)C(=O)O)c1 [lifitegrast]
